Holding throughout (assay): Two-electrode voltage clamp activation of α1β3
Common to all, as to assay type: cell-based

Experiment [1] deals with T1, α1β3(M286W+F221W) GABAA receptor (Homo sapiens, UniProt P14867+P28472, F246W/M311W).
T1 sequence (P28472 26-473 F246W/M311W): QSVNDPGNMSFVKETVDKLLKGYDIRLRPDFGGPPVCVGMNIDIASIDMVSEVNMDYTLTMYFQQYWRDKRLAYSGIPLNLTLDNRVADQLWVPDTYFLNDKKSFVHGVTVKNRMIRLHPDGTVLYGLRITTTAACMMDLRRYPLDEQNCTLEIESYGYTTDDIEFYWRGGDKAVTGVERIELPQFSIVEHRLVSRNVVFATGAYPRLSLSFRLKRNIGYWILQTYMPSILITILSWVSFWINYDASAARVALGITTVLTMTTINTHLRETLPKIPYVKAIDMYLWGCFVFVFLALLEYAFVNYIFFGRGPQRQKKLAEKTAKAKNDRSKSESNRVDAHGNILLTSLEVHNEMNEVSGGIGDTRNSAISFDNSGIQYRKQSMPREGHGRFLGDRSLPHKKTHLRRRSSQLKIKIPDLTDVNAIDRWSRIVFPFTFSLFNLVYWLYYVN
T1 sequence (P14867 28-456): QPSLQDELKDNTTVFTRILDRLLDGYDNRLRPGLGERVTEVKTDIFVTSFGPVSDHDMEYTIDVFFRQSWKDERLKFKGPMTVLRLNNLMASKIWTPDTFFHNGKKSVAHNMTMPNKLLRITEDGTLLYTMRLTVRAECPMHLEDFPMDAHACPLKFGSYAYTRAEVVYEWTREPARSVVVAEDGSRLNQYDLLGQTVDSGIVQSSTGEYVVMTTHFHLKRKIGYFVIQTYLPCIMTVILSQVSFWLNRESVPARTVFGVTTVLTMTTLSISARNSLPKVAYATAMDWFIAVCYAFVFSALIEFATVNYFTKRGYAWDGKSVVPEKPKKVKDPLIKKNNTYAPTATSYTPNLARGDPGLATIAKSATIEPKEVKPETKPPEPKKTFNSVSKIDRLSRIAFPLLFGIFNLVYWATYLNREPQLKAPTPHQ
Particulars: for Po,max^est / nH / d: α1β3(M286W+F221W); for d: KO/KC, MWC fit.

Experiment [2] deals with T2, α1β3(Q224W) GABAA receptor (Homo sapiens, UniProt P14867+P28472, Q249W).
T2 sequence (P28472 26-473 Q249W): T1 sequence (P28472 26-473 F246W/M311W) with W221F, Q224W, W286M
T2 sequence (P14867 28-456): T1 sequence (P14867 28-456)
Conditions: for Po,max^est / nH / d: α1β3(Q224W); for d: KO/KC, MWC fit.

In experiment [3] the target is T3, α1β3(F221W) GABAA receptor (Homo sapiens, UniProt P14867+P28472, F246W).
T3 sequence (P28472 26-473 F246W): T1 sequence (P28472 26-473 F246W/M311W) with W286M
T3 sequence (P14867 28-456): T1 sequence (P14867 28-456)
Particulars: for Po,max^est / nH / d: α1β3(F221W); for d: KO/KC, MWC fit.

Experiment [4] deals with T4, α1β3(Y143W) GABAA receptor (Homo sapiens, UniProt P14867+P28472, Y168W).
T4 sequence (P28472 26-473 Y168W): T1 sequence (P28472 26-473 F246W/M311W) with Y143W, W221F, W286M
T4 sequence (P14867 28-456): T1 sequence (P14867 28-456)
Particulars: for Po,max^est / nH / d: α1β3(Y143W); for d: KO/KC, MWC fit.

Results on two compounds are retold here after PMC5050400 (Current Neuropharmacology, 2016).

Structures are written as SMILES. Numbering of substitutions follows the chain as printed.

`NCCCC(=O)O` [GABA, γ-aminobutyric acid]: the “Po,max^est” value in experiment [1] is 1; in experiment [2], 0.24±0.03; in experiment [3], 1; in experiment [4], 1. Besides, the nH in experiment [1] turned out to be 1.1±0.1; in experiment [2], 1.0±0.1; in experiment [3], 1.5±0.1; in experiment [4], 1.7±0.1. The d in experiment [1] is 0.07±0.05; in experiment [2] it was 0.06±0.01; in experiment [3], 0.03±0.02; in experiment [4] it was 0.02±0.001.

Turning to `CC(C)c1cccc(C(C)C)c1O` [Propofol, 2,6-diisopropylphenol], in experiment [1], it took 6.6 ± 0.8 µM to reach a half-maximal effect (EC50), binding was put at a Kd of 5.7 ± 1.6 µM, the “Po,max^est” value was determined as 0.60±0.04 and the nH is listed as 1.1±0.1. Further, in experiment [1], the d came out at 0.84±0.01. In experiment [2], the EC50 (commonly the midpoint of the concentration-response curve) stood at 50 ± 2 µM; the dissociation constant Kd (usually the free concentration of one partner at which half of the binding sites on the other are occupied at equilibrium, for simple one-to-one binding) stood at 336 ± 435 µM; the “Po,max^est” value is 1; the nH worked out at 2.9±0.6. This compound showed a d in experiment [2] of 0.04±0.05. In addition, in experiment [3], the EC50 worked out at 5 ± 0.5 µM, the Kd stood at 13.1 ± 1.5 µM, the “Po,max^est” value came to 1 and the nH was determined as 1.9±0.3. Besides, the d in experiment [3] was 0.23±0.01. Further, in experiment [4], the midpoint of the response, the EC50, lay at 12.8 ± 2.9 µM; the dissociation constant Kd stood at 23 ± 6 µM; the “Po,max^est” value was 1; the nH was determined as 1.6±0.1. In experiment [4], the d is recorded as 0.27±0.03.
